From patent publication US12043600B2, “Microbiocidal compounds” (SYNGENTA CROP PROTECTION AG, priority 2018, dated 2024)
Like-named read-outs stand apart in the source and are kept apart here.

Legend:
[1] = tested on: Magnaporthe grisea (Pyricularia oryzae); test: whole plant or invertebrate; format: in vivo; details: foliar, read-out: control of Magnaporthe grisea
[2] = tested on: Mycosphaerella arachidis (Cercospora arachidicola); test: Mycosphaerella arachidis (Cercospora arachidicola)/Liquid Culture (Early Leaf Spot); format: cell-based; details: liquid culture, compared to untreated control
In short: (§1)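 First, the test compound in DMSO is placed in the wells. Next, potato dextrose broth seeded with conidia taken straight from cryogenic storage is added, and the culture is left to grow.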

[3] = tested on: Phaeosphaeria nodorum (Septoria nodorum); test: Phaeosphaeria nodorum (Septoria nodorum)/Wheat/Leaf Disc Preventative (Glume Blotch); format: in vivo; details: Parastagonospora nodorum, foliar, wheat leaf disc preventative, compared to untreated control
In short: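 Wheat cv. Kanzler leaf discs on agar were sprayed with formulated compound diluted in water and inoculated with P. nodorum spores 2 days later. Discs kept at 20 °C, 75% rh, 12 h light/dark; percent disease control versus untreated scored 5–7 days after application.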

[4] = tested on: Puccinia recondita f. sp. tritici; test: Puccinia recondita f. sp. tritici/Wheat/Leaf Disc Preventative (Brown Rust); format: in vivo; details: foliar
[5] = tested on: Monographella nivalis (Microdochium nivale); test: Monographella nivalis (Microdochium nivale)/Liquid Culture (Foot Rot Cereals); format: cell-based; details: liquid culture, compared to untreated control
In short: as §1

Pyrenophora teres = test: Pyrenophora teres/Barley/Leaf Disc Preventative (Net Blotch); format: in vivo; details: foliar
From the text: Barley leaf segments cv. Hasso are placed on agar in a multiwell plate (24-well format) and sprayed with the formulated test compound diluted in water. The leaf segments are inoculated with a spore suspension of the fungus 2 days after application. […] The data are presented as the percentage of disease control of each compound for the biological tests against G. lagenarium (Example B3), P. recondita preventative (Example B13), P. teres (Example B15) and M. graminicola (Example B19) as described above. The testing rates of each biological test is specifically described in table C1 below.

Phakopsora pachyrhizi = test: Phakopsora pachyrhizi/Soybean/Preventative (Soybean Rust); format: in vivo; details: foliar, 288 h, 200 ppm, soybean leaf disc preventative, compared to untreated control, read-out: control of Phakopsora pachyrhizi
Plasmopara viticola = test: whole plant or invertebrate; format: in vivo; details: foliar, read-out: control of Plasmopara viticola
[6] = tested on: Mycosphaerella graminicola (Septoria tritici); test: Mycosphaerella graminicola (Septoria tritici)/Liquid Culture (Septoria Blotch); format: cell-based; details: Zymoseptoria tritici; for inhibition of growth at 20 ppm: liquid culture, compared to untreated control; for inhibition of growth at 6 ppm: M. graminicola (B19), read-out: Disease control (%)
In short: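 Conidia from cryogenic storage mixed into potato dextrose broth and added to microtiter wells already holding DMSO solutions of test compound. Activity expressed as percentage disease control.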

[7] = tested on: Glomerella lagenarium (Colletotrichum lagenarium); test: Glomerella lagenarium (Colletotrichum lagenarium)/Liquid Culture (Anthracnose); format: cell-based; details: Colletotrichum orbiculare, liquid culture, compared to untreated control
Phytophthora infestans = test: whole plant or invertebrate; format: in vivo; details: in Solanum lycopersicum, foliar, read-out: control of Phytophthora infestans
[8] = tested on: Blumeria graminis f. sp. tritici (Erysiphe graminis f. sp. tritici); test: Blumeria graminis f. sp. tritici/Wheat/Leaf Disc Preventative (Powdery Mildew on Wheat); format: in vivo; details: foliar, wheat leaf disc preventative, compared to untreated control
In short: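 Wheat cv. Kanzler leaf segments on agar sprayed with formulated compound, inoculated with powdery mildew 1 day later and held at 20° C, 60% rh (24 h dark, then 12 h light/12 h dark). Percent disease control versus untreated scored 6-8 days after application.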

[9] = tested on: Botryotinia fuckeliana (Botrytis cinerea); test: Botryotinia fuckeliana (Botrytis cinerea)/Liquid Culture (Gray Mould); format: cell-based; details: liquid culture, compared to untreated control
Description: Conidia of the fungus from cryogenic storage are directly mixed into nutrient broth (Vogels broth). After placing a (DMSO) solution of test compound into a microtiter plate (96-well format), the nutrient broth containing the fungal spores is added.

[10] = tested on: Puccinia recondita f. sp. tritici; test: Puccinia recondita f. sp. tritici/Wheat/Leaf Disc Curative (Brown Rust); format: in vivo; details: foliar, wheat leaf disc curative, compared to untreated control
Description: Wheat leaf segments cv. Kanzler are placed on agar in multiwell plates (24-well format). The leaf segments are inoculated with a spore suspension of the fungus. Plates are stored in darkness at 19° C. and 75% rh. The formulated test compound diluted in water is applied 1 day after inoculation. The leaf segments are incubated at 19° C. and 75% rh under a light regime of 12 h light/12 h darkness in a climate cabinet and the activity of a compound is assessed as percent disease control compared to untreated when an appropriate level of disease damage appears in untreated check leaf segments (6-8 days after application).

[11] = wheat leaf disc preventative, compared to untreated control, read-out: control of Puccinia recondita f. sp. tritici
[12] = barley leaf disc preventative, compared to untreated control, read-out: control of Pyrenophora teres
[13] = P. recondita prev (B13), read-out: Disease control (%)
[14] = P. teres (B15), read-out: Disease control (%)

SMILES | inhibition of growth at 20 ppm [2] | pest or weed control at 200 ppm [4, 11] | inhibition of growth at 20 ppm [5] | pest or weed control at 200 ppm (Pyrenophora teres; [12]) | pest or weed control at 200 ppm (Plasmopara viticola) | inhibition of growth at 20 ppm [6] | melting point | pest or weed control at 200 ppm [8] | pest or weed control at 60 ppm [4, 13] | pest or weed control at 200 ppm (Pyrenophora teres; [14]) | inhibition of growth at 6 ppm [6] | further results
CC#Cc1ccn(-c2ccc(C)c(O/C(=C\OC)C(=O)OC)c2)n1 [Compound E-2, methyl (Z)-3-methoxy-2-[2-methyl-5-(3-prop-1-ynylpyrazol-1-yl)phenoxy]prop-2-enoate] | ≥ 80% | ≥ 80% | ≥ 80% | ≥ 80% | ≥ 80% | ≥ 80% | 175 to 179 °C | – | – | – | – | pest or weed control at 200 ppm [1]: ≥ 80%; pest or weed control at 200 ppm [3]: ≥ 80%; pest or weed control at 200 ppm (Phakopsora pachyrhizi): ≥ 50%
CO/C=C(\Oc1cc(-n2cc(Cl)c(OC(C)C)n2)ccc1C)C(=O)OC [Compound E-12, methyl (Z)-2-[5-(4-chloro-3-isopropoxy-pyrazol-1-yl)-2-methyl-phenoxy]-3-methoxy-prop-2-enoate] | ≥ 80% | ≥ 80% | ≥ 80% | ≥ 80% | ≥ 80% | ≥ 80% | 104 to 107 °C | – | – | – | – | inhibition of growth at 20 ppm [7]: ≥ 80%; pest or weed control at 200 ppm [1]: ≥ 80%; pest or weed control at 200 ppm (Phytophthora infestans): ≥ 80%
CO/C=C(\Oc1cc(-n2ccc(C(C)C)n2)c(C)cc1C)C(=O)OC [Compound E-25, methyl (Z)-2-[5-(3-isopropylpyrazol-1-yl)-2,4-dimethyl-phenoxy]-3-methoxy-prop-2-enoate] | ≥ 80% | ≥ 80% | ≥ 80% | – | ≥ 80% | ≥ 80% | 96 to 98 °C | ≥ 80% | – | – | – | inhibition of growth at 20 ppm [7]: ≥ 80%; pest or weed control at 200 ppm [1]: ≥ 80%; inhibition of growth at 20 ppm [9]: ≥ 80%; pest or weed control at 200 ppm [10]: ≥ 80%; pest or weed control at 200 ppm (Phytophthora infestans): ≥ 80%
CO/C=C(\Oc1cc(-n2ccc(OC(F)F)n2)ccc1C)C(=O)OC [Compound E-66, methyl (Z)-2-[5-[3-(difluoromethoxy)pyrazol-1-yl]-2-methyl-phenoxy]-3-methoxy-prop-2-enoate] | ≥ 80% | ≥ 80% | ≥ 80% | – | ≥ 80% | ≥ 80% | 123 to 126 °C | ≥ 80% | – | – | – | inhibition of growth at 20 ppm [7]: ≥ 80%; pest or weed control at 200 ppm [3]: ≥ 80%; inhibition of growth at 20 ppm [9]: ≥ 80%; pest or weed control at 200 ppm [10]: ≥ 80%
CO/C=C(\Oc1cc(-n2ccc(I)n2)ccc1C)C(=O)OC [Compound E-78, methyl (Z)-2-[5-(3-iodopyrazol-1-yl)-2-methyl-phenoxy]-3-methoxy-prop-2-enoate] | ≥ 80% | ≥ 80% | ≥ 80% | ≥ 80% | ≥ 80% | ≥ 80% | 156 to 159 °C | ≥ 80% | – | – | – | inhibition of growth at 20 ppm [7]: ≥ 80%; pest or weed control at 200 ppm [1]: ≥ 80%; pest or weed control at 200 ppm [3]: ≥ 80%; pest or weed control at 200 ppm (Phytophthora infestans): ≥ 80%
CO/C=C(\Oc1cc(-n2ccc(C#N)n2)ccc1C)C(=O)OC [Compound E-89, methyl (Z)-2-[5-(3-cyanopyrazol-1-yl)-2-methyl-phenoxy]-3-methoxy-prop-2-enoate] | – | ≥ 80% | ≥ 80% | ≥ 80% | ≥ 80% | ≥ 80% | – | – | – | – | – | pest or weed control at 200 ppm (Phakopsora pachyrhizi): ≥ 50%
CCOc1ccn(-c2ccc(C)c(O/C(=C\OC)C(=O)OC)c2)n1 [Compound E-94, methyl (Z)-2-[5-(3-ethoxypyrazol-1-yl)-2-methyl-phenoxy]-3-methoxy-prop-2-enoate] | ≥ 80% | ≥ 80% | ≥ 80% | – | ≥ 80% | ≥ 80% | 94 to 96 °C | ≥ 80% | – | – | – | inhibition of growth at 20 ppm [7]: ≥ 80%; pest or weed control at 200 ppm [3]: ≥ 80%; inhibition of growth at 20 ppm [9]: ≥ 80%; pest or weed control at 200 ppm [10]: ≥ 80%; pest or weed control at 200 ppm (Phytophthora infestans): ≥ 80%
CO/C=C(\Oc1cc(-n2ccc(C(F)(F)F)n2)ccc1C1CC1)C(=O)OC [Compound E-108, methyl (Z)-2-[2-cyclopropyl-5-[3-(trifluoromethyl)pyrazol-1-yl]phenoxy]-3-methoxy-prop-2-enoate] | ≥ 80% | ≥ 80% | ≥ 80% | ≥ 80% | – | ≥ 80% | 130 to 132 °C | ≥ 80% | – | – | – | –
CCc1ccc(-n2ccc(C(F)(F)F)n2)cc1O/C(=C\OC)C(=O)OC [Compound E-109, methyl (Z)-2-[2-ethyl-5-[3-(trifluoromethyl)pyrazol-1-yl]phenoxy]-3-methoxy-prop-2-enoate] | ≥ 80% | ≥ 80% | ≥ 80% | ≥ 80% | ≥ 80% | ≥ 80% | 135 to 137 °C | ≥ 80% | – | – | – | –
CO/C=C(\Oc1cccc(-n2ncc(C3CC3)n2)c1)C(=O)OC [drawing 146] | – | – | – | – | – | – | – | – | 100% | 0% | 90% | –
CO/C=C(\Oc1cc(-n2ncc(C3CC3)n2)ccc1C)C(=O)OC [drawing 147] | – | – | – | – | – | – | – | – | 100% | – | 100% | pest or weed control at 20 ppm (Pyrenophora teres; P. teres (B15), 20 ppm, read-out: Disease control (%)): 50%
CO/C=C(\Oc1cc(-n2ccc(C(F)(F)F)n2)c(F)cc1C)C(=O)OC [drawing 148] | – | – | – | – | – | – | – | – | 100% | 90% | 100% | –
CO/C=C(\Oc1cc(-n2ccc(C(C)C)n2)ccc1C)C(=O)OC [drawing 149] | – | – | – | – | – | – | – | – | 100% | 0% | 100% | –
CO/C=C(\Oc1cc(-n2ccc(OC(C)C)n2)ccc1C)C(=O)OC [drawing 150] | – | – | – | – | – | – | – | – | 100% | 90% | 100% | –
CO/C=C(\Oc1cc(-n2ccc(C(F)(F)F)n2)ccc1C)C(=O)OC [drawing 152] | – | – | – | – | – | – | – | – | 100% | 90% | 100% | –
CO/C=C(\Oc1cccc(-n2ccc(C(F)(F)F)n2)c1)C(=O)OC [drawing 153] | – | – | – | – | – | – | – | – | – | 50% | 70% | pest or weed control at 200 ppm [4, 13]: 90%
CO/C=C(\Oc1cccc(-n2cccc2)c1)C(=O)OC [drawing 154, reference compound] | – | – | – | – | – | – | – | – | – | 0% | 20% | pest or weed control at 200 ppm [4, 13]: 0%
